In patent US9884063B2, “Amido-substituted azole compounds” (Bayer Pharma Aktiengesellschaft, priority 2014, dated 2018):
“And” between values parts separate entries of the source, which are not always exact repeats. Identical values can stand only once. Counter-ions that a name gives are not always drawn.

Key:
[1] = system: wildtype Wnt signaling cascade; assay: HEK293 TOP Assay (Super TopFlash luciferase reporter, Wnt-3a stimulated); format: cell-based
Outline: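 HEK293 cells stably carrying Super TopFlash (TOP) or FOP reporter, stimulated with recombinant human Wnt-3a (2500–5 ng/ml, two-fold steps). Both lines incubated in parallel with compound from 50 μM to 15 nM (3.16-fold) in CAFTY buffer pH 7.4 with 2 mM Ca2+ and 0.01% BSA; selectivity judged TOP vs FOP.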

[2] = molecular target: T1, TNKS2 (Homo sapiens, UniProt Q9H2K2); assay: Modified TNKS2 Assay 3 (BPS kit #80578, biotin-NAD+, 96 well); format: biochemical; settings: human TNKS2, BPS kit #80578, 96 well
T1 sequence (Q9H2K2 1-1166): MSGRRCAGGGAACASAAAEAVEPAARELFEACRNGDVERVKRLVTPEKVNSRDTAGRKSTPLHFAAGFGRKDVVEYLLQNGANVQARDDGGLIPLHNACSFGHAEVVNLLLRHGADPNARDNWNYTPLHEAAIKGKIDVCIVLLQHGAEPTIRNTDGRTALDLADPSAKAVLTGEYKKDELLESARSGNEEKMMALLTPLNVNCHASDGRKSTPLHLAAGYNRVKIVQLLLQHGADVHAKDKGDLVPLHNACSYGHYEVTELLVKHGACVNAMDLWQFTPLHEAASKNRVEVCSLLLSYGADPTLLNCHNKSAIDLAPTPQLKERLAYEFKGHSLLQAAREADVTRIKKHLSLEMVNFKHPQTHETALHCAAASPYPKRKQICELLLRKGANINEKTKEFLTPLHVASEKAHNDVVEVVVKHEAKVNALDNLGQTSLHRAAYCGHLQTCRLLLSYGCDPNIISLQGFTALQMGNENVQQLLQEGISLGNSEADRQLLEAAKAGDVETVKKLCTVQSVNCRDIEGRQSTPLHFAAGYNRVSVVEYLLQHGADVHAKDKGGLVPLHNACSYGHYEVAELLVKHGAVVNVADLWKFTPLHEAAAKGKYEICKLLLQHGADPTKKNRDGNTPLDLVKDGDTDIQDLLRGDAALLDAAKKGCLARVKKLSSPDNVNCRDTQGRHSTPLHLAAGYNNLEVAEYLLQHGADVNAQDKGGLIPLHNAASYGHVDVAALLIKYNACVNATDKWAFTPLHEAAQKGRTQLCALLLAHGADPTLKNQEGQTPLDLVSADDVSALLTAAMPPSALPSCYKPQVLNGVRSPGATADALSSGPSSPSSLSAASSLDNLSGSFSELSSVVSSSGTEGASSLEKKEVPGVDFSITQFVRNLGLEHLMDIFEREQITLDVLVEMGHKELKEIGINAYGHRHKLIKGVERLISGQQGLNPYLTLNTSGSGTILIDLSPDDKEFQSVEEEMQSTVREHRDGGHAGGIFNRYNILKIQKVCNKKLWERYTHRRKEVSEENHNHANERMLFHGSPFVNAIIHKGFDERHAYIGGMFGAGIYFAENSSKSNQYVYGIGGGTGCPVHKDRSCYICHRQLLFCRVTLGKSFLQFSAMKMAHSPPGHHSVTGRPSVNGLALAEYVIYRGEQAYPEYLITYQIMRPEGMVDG
Outline: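 Commercial kit assay measuring TNKS2-catalysed incorporation of biotin-labelled NAD+ into a protein substrate, detected by streptavidin-HRP chemiluminescence. Run per manufacturer's protocol; IC50 is the concentration halving the normalised signal.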

[3] = Homo sapiens, HEK293, 16 h, HEK293 TOP reporter cell line, Wnt-3a at EC50, 16 hours incubation, compound dilution series 50 μM to 15 nM
[4] = Homo sapiens, HEK293, 16 h, HEK293 TOP reporter cells, Wnt3a at EC50, 16 hours, luciferase

Row | IC50 ([1]; HEK293 TOP reporter cell line, Wnt-3a at EC50, 16 hours incubation, compound dilution series 50 μM to 15 nM) [nM] | IC50 [2] | IC50 [1, 3] [nM] | IC50 [1, 4] [nM] | Compound | IC50 ([1]; Homo sapiens, HEK293 TOP reporter cell line, Wnt-3a at EC50, 16 hours incubation, compound dilution series 50 μM to 15 nM) [nM]
1 | 6450 | > 500 nM | – | – | CC(CN1CCOCC1)NC(=O)c1[nH]cnc1C(=O)Nc1ccc(NC(=O)c2ccc(F)cc2)cc1 (single isomer, unassigned; enantiomer 2) [Example 296, N^4-{4-[(4-fluorobenzoyl)amino]phenyl}-N^5-[1-(morpholin-4-yl)propan-2-yl]-1H-imidazole-4,5-dicarboxamide (enantiomer 2)] | –
2 | – | 510 nM | 640 | – | CC(C)[C@@H](C)NC(=O)c1[nH]cnc1C(=O)Nc1ccc(NC(=O)c2ccc(F)cc2Cl)cc1 [Example 134, N^4-{4-[(2-chloro-4-fluorobenzoyl)amino]phenyl}-N^5-[(2R)-3-methylbutan-2-yl]-1H-imidazole-4,5-dicarboxamide] | –
3 | – | 4 nM and < 0.5 nM | 30 | – | O=C(Nc1ccc(NC(=O)c2nc[nH]c2C(=O)NCCN2CCCC2)cc1)c1ccc(F)cc1Cl [Example 228, N^4-{4-[(2-chloro-4-fluorobenzoyl)amino]phenyl}-N^5-[2-(pyrrolidin-1-yl)ethyl]-1H-imidazole-4,5-dicarboxamide] | –
4 | – | 3 nM | 130 | – | CC1CCCN(CCNC(=O)c2[nH]cnc2C(=O)Nc2ccc(NC(=O)c3ccccc3Cl)cc2)C1 (centres unmarked) [Example 210, N^4-{4-[(2-chlorobenzoyl)amino]phenyl}-N^5-[2-(3-methylpiperidin-1-yl)ethyl]-1H-imidazole-4,5-dicarboxamide] | –
5 | – | 10 nM | 460 | – | CC(C)(N)CCNC(=O)c1[nH]cnc1C(=O)Nc1ccc(NC(=O)c2ccc(F)cc2Cl)cc1 [Example 286, N^5-(3-amino-3-methylbutyl)-N^4-{4-[(2-chloro-4-fluorobenzoyl)amino]phenyl}-1H-imidazole-4,5-dicarboxamide] | –
6 | – | 420 nM | 7500 | – | CC(C)(N)CNC(=O)c1ncoc1C(=O)Nc1ccc(NC(=O)c2ccc(F)cc2Cl)cc1 [Example 219, N^4-(2-amino-2-methylpropyl)-N^5-{4-[(2-chloro-4-fluorobenzoyl)amino]phenyl}-1,3-oxazole-4,5-dicarboxamide] | –
7 | – | 20 nM | 130 | 130 | COC(=O)c1nc[nH]c1C(=O)Nc1ccc(NC(=O)c2ccc(F)cc2Cl)cc1 [Example 13, Methyl 5-({4-[(2-chloro-4-fluorobenzoyl)amino]phenyl}carbamoyl)-1H-imidazole-4-carboxylate] | –
8 | – | 3 nM | 60 | – | CC(CN1CCOCC1)NC(=O)c1[nH]cnc1C(=O)Nc1ccc(NC(=O)c2ccc(F)cc2Cl)cc1 (centres unmarked) [Example 268, N^4-{4-[(2-chloro-4-fluorobenzoyl)amino]phenyl}-N^5-[1-(morpholin-4-yl)propan-2-yl]-1H-imidazole-4,5-dicarboxamide] | –
9 | – | > 500 nM | 450 | 630 | O=C(Nc1ccc(NC(=O)c2[nH]cnc2C(=O)NCCN2CCCCC2)cc1)c1ccc(F)cc1 [Example 33, N^4-{4-[(4-fluorobenzoyl)amino]phenyl}-N^5-[2-(piperidin-1-yl)ethyl]-1H-imidazole-4,5-dicarboxamide] | –
10 | – | 230 nM | 430 | – | O=C(Nc1ccc(NC(=O)c2nc[nH]c2C(=O)NCC2CCCO2)cc1)c1ccc(F)cc1Cl (centres unmarked) [Example 237, N^4-{4-[(2-chloro-4-fluorobenzoyl)amino]phenyl}-N^5-(tetrahydrofuran-2-ylmethyl)-1H-imidazole-4,5-dicarboxamide] | –
11 | – | 40 nM | 750 | – | CNC(=O)c1nc[nH]c1C(=O)Nc1ccc(NC(=O)c2ccc(C#N)cc2F)cc1 [Example 369, N^5-{4-[(4-cyano-2-fluorobenzoyl)amino]phenyl}-N^4-methyl-1H-imidazole-4,5-dicarboxamide] | –

Row | Compound | IC50 ([1]; HEK293 TOP reporter cell line, Wnt-3a at EC50, 16 hours incubation, compound dilution series 50 μM to 15 nM) [nM] | IC50 [2] | IC50 [1, 3] [nM] | IC50 [1, 4] [nM] | IC50 ([1]; Homo sapiens, HEK293 TOP reporter cell line, Wnt-3a at EC50, 16 hours incubation, compound dilution series 50 μM to 15 nM) [nM]
12 | O=C(Nc1ccc(NC(=O)c2nc[nH]c2C(=O)NCC2CCCN2)cc1)c1ccc(F)cc1Cl (centres unmarked) [Example 284, N^4-{4-[(2-chloro-4-fluorobenzoyl)amino]phenyl}-N^5-(pyrrolidin-2-ylmethyl)-1H-imidazole-4,5-dicarboxamide hydrochloride salt] | – | 10 nM | – | – | 680
